According to DBAASP:
In brackets after ≈: the same amount, converted by molar mass.

Legend:
Assay in all cases: ≥ marks a high value that may be exact or a test limit, other limits are often not marked, values filed in µg/mL are converted to µM
[1] = test system: Bacillus subtilis VKM B-501
Escherichia coli C600 = test system: Escherichia coli C600
[2] = test system: Staphylococcus aureus 209P
[3] = test system: Escherichia coli ATCC 25922
[4] = test system: Listeria monocytogenes EGD
[5] = test system: Pseudomonas aeruginosa ATCC 27853
[6] = test system: Staphylococcus aureus ATCC 25923
[7] = test system: Mycobacterium tuberculosis CAS3
[8] = test system: Mycobacterium tuberculosis H37Rv
[9] = test system: Mycobacterium tuberculosis WXY
[10] = test system: Legionella pneumophila Lens
Acinetobacter baumannii = test system: Acinetobacter baumannii
Enterococcus sp. = test system: Enterococcus sp.
Escherichia coli ESBL = test system: Escherichia coli ESBL
Klebsiella pneumoniae = test system: Klebsiella pneumoniae
Pseudomonas aeruginosa = test system: Pseudomonas aeruginosa
Staphylococcus aureus = test system: Staphylococcus aureus
[11] = test system: Staphylococcus epidermidis
[12] = test system: Escherichia coli CIP 54.8T
Enterococcus faecalis VR = test system: Enterococcus faecalis VR
Enterococcus faecalis = test system: Enterococcus faecalis
[13] = test system: Escherichia coli ATCC BAA-2523
[14] = test system: Staphylococcus aureus ATCC 29213
[15] = test system: Staphylococcus aureus ATCC 43300
[16] = test system: Acinetobacter baumannii ATCC BAA-1605
[17] = test system: Acinetobacter baumannii KCCM 1053
[18] = test system: Bacillus subtilis KCTC 3068
[19] = test system: Enterococcus faecalis ATCC 51575
[20] = test system: Enterococcus faecalis KCCM 11814
[21] = test system: Escherichia coli KCTC 1682
[22] = test system: Pseudomonas aeruginosa CCARM 2180
[23] = test system: Pseudomonas aeruginosa KCTC 1637
[24] = test system: Salmonella typhimurium KCTC 1926
[25] = test system: Staphylococcus aureus KCCM 40510
[26] = test system: Staphylococcus aureus KCTC 1621
[27] = test system: Staphylococcus epidermidis KCTC 1917

Question: Which results are given for CSCC[C@H](NC(=O)[C@H](CCCCN)NC(=O)CN)C(=O)N[C@@H](CCCCN)C(=O)N[C@@H](CCC(=O)O)C(=O)N[C@@H](Cc1ccc(O)cc1)C(=O)N[C@@H](Cc1ccccc1)C(=O)N[C@@H](CCCCN)C(=O)N[C@@H](CCCCN)C(=O)N[C@@H](Cc1ccccc1)C(=O)NCC(=O)N[C@@H](C)C(=O)N[C@@H](CO)C(=O)N[C@@H](Cc1ccccc1)C(=O)N[C@@H](CCCCN)C(=O)N[C@@H](CCCN=C(N)N)C(=O)N[C@@H](CCCN=C(N)N)C(=O)N[C@@H](Cc1ccccc1)C(=O)N[C@@H](C)C(=O)N[C@@H](CC(N)=O)C(=O)N[C@@H](CC(C)C)C(=O)N[C@@H](CCCCN)C(=O)N[C@@H](CCCCN)C(=O)N[C@@H](CCCN=C(N)N)C(=O)N[C@@H](CC(C)C)C(N)=O [GKMKEYFKKFGASFKRRFANLKKRL]?
Answer: MIC [1]: 0.7 µM (≈ 2.16 µg/mL); MIC (Escherichia coli C600): 1.5 µM (≈ 4.62 µg/mL); MIC [2]: 3 µM (≈ 9.24 µg/mL)

Question: Which MIC [3] does the source give for CC[C@H](C)[C@H](NC(=O)[C@H](C)NC(=O)CNC(=O)[C@H](CCCCN)NC(=O)[C@@H](NC(=O)[C@H](CC(C)C)NC(=O)[C@H](C)NC(=O)[C@H](CC(C)C)NC(=O)[C@@H](NC(=O)[C@@H](NC(=O)[C@H](Cc1ccc(O)cc1)NC(=O)[C@@H](NC(=O)[C@H](Cc1ccccc1)NC(=O)[C@H](CCCCN)NC(=O)[C@H](CCCCN)NC(=O)[C@@H](N)CCCCN)[C@@H](C)CC)[C@@H](C)CC)C(C)C)[C@@H](C)CC)C(=O)N[C@H](C(=O)N[C@@H](CCCCN)C(=O)N[C@@H](CCCCN)C(=O)NCC(N)=O)[C@@H](C)CC [KKKFIYIVLALIKGAIIKKG] here?
Answer: 32 µM (≈ 71.8 µg/mL)

Question: What about the MIC [4] of the same compound?
Answer: ≥ 32 µM

Question: And the MIC [5]?
Answer: 64 µM (≈ 144 µg/mL)

Question: And the MIC [6]?
Answer: 64 µM (≈ 144 µg/mL)

Question: With CC(C)C[C@H](NC(=O)[C@H](CC(C)C)NC(=O)[C@H](CCCCN)NC(=O)[C@H](CCCCN)NC(=O)[C@@H](NC(=O)[C@H](C)N)C(C)C)C(=O)N[C@@H](C)C(=O)N[C@@H](C)C(=O)N[C@@H](C)C(=O)N[C@@H](CO)C(=O)N[C@@H](C)C(=O)N[C@@H](C)C(=O)N[C@@H](C)C(=O)N[C@@H](CCCCN)C(=O)N[C@@H](CCCCN)C(=O)O [AVKKLLAAASAAAKK] as the compound, how does the MIC [7] read?
Answer: ≥ 139 µM

Question: What about the MIC [8] of the same compound?
Answer: ≥ 139 µM

Question: What about the MIC [9] of the same compound?
Answer: ≥ 139 µM

Question: CC[C@H](C)[C@H](NC(=O)[C@H](CC(C)C)NC(=O)[C@H](CCCCN)NC(=O)[C@H](CCCCN)NC(=O)[C@@H](NC(=O)[C@@H](NC(=O)[C@H](CCC(=O)O)NC(=O)[C@@H](NC(=O)[C@@H](NC(=O)[C@H](CCCCN)NC(=O)[C@H](C)NC(=O)[C@@H](NC(=O)[C@@H](NC(=O)[C@H](CC(=O)O)NC(=O)[C@H](C)NC(=O)[C@@H](N)CCSC)C(C)C)[C@@H](C)CC)[C@@H](C)CC)C(C)C)[C@@H](C)CC)C(C)C)C(=O)N[C@@H](CC(=O)O)C(=O)N[C@@H](CCC(N)=O)C(=O)N[C@@H](Cc1ccccc1)C(=O)N[C@H](C(=O)N[C@@H](CCC(N)=O)C(=O)N[C@@H](CCCCN)C(=O)O)[C@@H](C)O [MADVIAKIVEIVKKLIDQFTQK] was tested. Which MIC [10] did it give?
Answer: 0.62 µM (≈ 1.57 µg/mL)

Question: Which MIC (Acinetobacter baumannii) does the source give for CC(C)C[C@H](NC(=O)CNC(=O)[C@H](CCCCN)NC(=O)[C@@H](NC(=O)[C@H](CCCCN)NC(=O)[C@H](CCCCN)NC(=O)[C@@H](NC(=O)[C@@H](NC(=O)[C@H](CCCCN)NC(=O)[C@@H](NC(=O)[C@H](CCCCN)NC(=O)CNC(=O)[C@H](CCCN=C(N)N)NC(=O)[C@H](Cc1ccc(O)cc1)NC(=O)[C@H](CC(C)C)NC(=O)[C@H](CCCCN)NC(=O)CNC(=O)[C@H](Cc1ccccc1)NC(=O)[C@@H](N)Cc1c[nH]c2ccccc12)[C@@H](C)O)C(C)C)C(C)C)C(C)C)C(=O)N[C@@H](CC(C)C)C(=O)N[C@@H](CCCCN)C(=O)NCC(=O)O [WFGKLYRGKTKVVKKVKGLLKG] here?
Answer: 2.47 µM (≈ 6.25 µg/mL)

Question: What about the MIC (Enterococcus sp.) of the same compound?
Answer: 9.87 µM (≈ 25 µg/mL)

Question: What about the MIC (Escherichia coli ESBL) of the same compound?
Answer: 2.47 µM (≈ 6.25 µg/mL)

Question: What about the MIC (Klebsiella pneumoniae) of the same compound?
Answer: 4.93 µM (≈ 12.5 µg/mL)

Question: What about the MIC (Pseudomonas aeruginosa) of the same compound?
Answer: 4.93 µM (≈ 12.5 µg/mL)

Question: What about the MIC (Staphylococcus aureus) of the same compound?
Answer: 9.87 µM (≈ 25 µg/mL)

Question: And the MIC [11]?
Answer: 9.87 µM (≈ 25 µg/mL)

Question: With CC[C@H](C)[C@H](NC(=O)[C@H](Cc1cnc[nH]1)NC(=O)[C@H](Cc1cnc[nH]1)NC(=O)[C@H](Cc1ccccc1)NC(=O)[C@@H](NC(=O)[C@H](CCCCN)NC(=O)[C@@H](NC(=O)[C@@H](N)Cc1ccccc1)[C@@H](C)CC)[C@@H](C)CC)C(=O)N[C@@H](Cc1ccccc1)C(=O)N[C@@H](CCCCN)C(=O)NCC(=O)N[C@@H](CC(N)=O)C(=O)N1CCC[C@H]1C(=O)N[C@@H](CCCCN)C(=O)N[C@@H](Cc1ccccc1)C(=O)N[C@@H](CO)C(=O)N[C@H](C(=O)N[C@H](C(=O)N[C@@H](CCCCN)C(=O)O)[C@@H](C)CC)[C@@H](C)CC [FIKIFHHIFKGNPKFSIIK] as the compound, how does the MIC [12] read?
Answer: ≥ 150 µM

Question: Which results are given for CC(C)C[C@H](NC(=O)[C@@H](N)CCC(N)=O)C(=O)NCC(=O)N[C@@H](CCCCN)C(=O)N[C@@H](CCCCN)C(=O)N[C@@H](CCCCN)C(=O)N[C@@H](Cc1cnc[nH]1)C(=O)N[C@@H](CCCN=C(N)N)C(=O)N[C@@H](CCCN=C(N)N)C(=O)N[C@@H](CCCN=C(N)N)C(=O)N1CCC[C@H]1C(=O)N[C@@H](CO)C(=O)N[C@@H](CCCCN)C(=O)N[C@@H](CCCCN)C(=O)N[C@@H](CCCCN)C(=O)N[C@@H](CCCN=C(N)N)C(=O)N[C@@H](Cc1cnc[nH]1)C(=O)N[C@@H](Cc1c[nH]c2ccccc12)C(=O)O [QLGKKKHRRRPSKKKRHW]?
Answer: MIC (Enterococcus faecalis VR): ≥ 128 µM; MIC (Enterococcus faecalis): ≥ 128 µM; MIC [3]: > 128 µM; MIC [13]: ≥ 128 µM; MIC [5]: > 128 µM; MIC (Pseudomonas aeruginosa): > 128 µM; MIC [14]: 128 µM (≈ 301 µg/mL); MIC [15]: 128 µM (≈ 301 µg/mL)

Question: CC[C@H](C)[C@@H]1NC(=O)[C@H](CCCN=C(N)N)NC(=O)[C@@H](NC(=O)[C@H](CC(C)C)NC(=O)[C@@H](N)CCCN=C(N)N)CSSC[C@@H](C(=O)N[C@@H](CCCN=C(N)N)C(=O)O)NC(=O)[C@H](Cc2c[nH]c3ccccc23)NC(=O)[C@H](CCCN=C(N)N)NC(=O)[C@H]([C@@H](C)CC)NC(=O)[C@H](Cc2c[nH]c3ccccc23)NC(=O)[C@H](Cc2c[nH]c3ccccc23)NC1=O [RLCRIWWIRWCR] was tested. Which MIC [16] did it give?
Answer: ≥ 64 µM

Question: What about the MIC [17] of the same compound?
Answer: 22.6 µM (≈ 39.5 µg/mL)

Question: What about the MIC [18] of the same compound?
Answer: ≥ 32 µM

Question: What about the MIC [19] of the same compound?
Answer: 11.3 µM (≈ 19.7 µg/mL)

Question: And the MIC [20]?
Answer: ≥ 32 µM

Question: And the MIC [21]?
Answer: 2.83 µM (≈ 4.94 µg/mL)

Question: And the MIC [22]?
Answer: ≥ 64 µM

Question: And the MIC [23]?
Answer: 4 µM (≈ 6.98 µg/mL)

Question: What about the MIC [24] of the same compound?
Answer: 8 µM (≈ 14 µg/mL)

Question: What about the MIC [25] of the same compound?
Answer: 22.6 µM (≈ 39.5 µg/mL)

Question: What about the MIC [26] of the same compound?
Answer: 16 µM (≈ 27.9 µg/mL)

Question: And the MIC [27]?
Answer: 8 µM (≈ 14 µg/mL)
